ChEMBL document CHEMBL6083270, “Synthesis and biological evaluation of 4,7,9-trisubstituted benzoxazepines as antileishmanial agents” (Bioorg Med Chem Lett, 2024)

What was measured:
Leishmania mexicana = assay: Antileishmanial activity against Leishmania mexicana intracellular amastigotes; format: functional, organism-based
[1] = Cytotoxicity against mouse J774.A1 cells assessed as reduction in cell viability; format: toxicity, cell-based
[2] = Selectivity index, ratio of EC50 for mouse J774.A1 cells to EC50 for Leishmania mexicana intracellular amastigotes; format: toxicity, cell-based; details: read-out: Ratio EC50

Cc1ccc(-c2cc3c(c(OCC4CCCN(C)C4)c2)OCCN(C(=O)C2CC2)C3)s1 (configuration not stated)
EC50 (Leishmania mexicana): 10.2 µM

Cc1ccc(-c2cc(O)c3c(c2)CN(C(=O)Cc2c(C)noc2C)CCO3)s1
EC50 (Leishmania mexicana): 22.8 µM

Cc1ccc(-c2cc3c(c(OCC4CCCN(C)C4)c2)OCCNC3)s1 (configuration not stated)
EC50 (Leishmania mexicana): 3.6 µM

Cc1ccc(-c2cc3c(c(OCC4CCCN(C)C4)c2)OCCN(C(=O)C2CCC2)C3)s1 (configuration not stated)
EC50 (Leishmania mexicana): 4.8 µM

Cc1noc(C)c1CC(=O)N1CCOc2c(cc(-c3cccc(Cl)c3)cc2OCC2CCCN(C)C2)C1 (configuration not stated)
EC50 (Leishmania mexicana): 0.9 µM
EC50 [1]: 3.2 µM
selectivity ratio [2]: 3.6

Cc1noc(C)c1CC(=O)N1CCOc2c(cc(-c3cccc(F)c3)cc2OCC2CCCN(C)C2)C1 (configuration not stated)
EC50 (Leishmania mexicana): 2.6 µM
EC50 [1]: 11.5 µM
selectivity ratio [2]: 4.4

Cc1noc(C)c1CC(=O)N1CCOc2c(cc(-c3ccc(Cl)cc3)cc2OCC2CCCN(C)C2)C1 (configuration not stated)
EC50 (Leishmania mexicana): 1.6 µM
EC50 [1]: 5.5 µM
selectivity ratio [2]: 3.4

Cc1noc(C)c1CC(=O)N1CCOc2c(O)cc(-c3cccc(F)c3)cc2C1
EC50 (Leishmania mexicana): 29.5 µM

Cc1ccc(-c2cc3c(c(OCC4CCCN(C)C4)c2)OCCN(C(=O)Cc2ccc(F)cc2)C3)s1 (configuration not stated)
EC50 (Leishmania mexicana): 4.9 µM

Cc1ccc(-c2cc3c(c(OCC4CCCN(C)C4)c2)OCCN(C(=O)Cc2c(C)noc2C)C3)s1 (configuration not stated)
EC50 (Leishmania mexicana): 2.3 µM
EC50 [1]: 4.7 µM
selectivity ratio [2]: 2

Cc1noc(C)c1CC(=O)N1CCOc2c(cc(-c3cccnc3)cc2OCC2CCCN(C)C2)C1 (configuration not stated)
EC50 (Leishmania mexicana): 29 µM
EC50 [1]: > 50 µM

Cc1noc(C)c1CC(=O)N1CCOc2c(cc(-c3ccn(C)n3)cc2OCC2CCCN(C)C2)C1 (configuration not stated)
EC50 (Leishmania mexicana): 16.5 µM
EC50 [1]: > 50 µM

Cc1noc(C)c1CC(=O)N1CCOc2c(O)cc(-c3cccc(Cl)c3)cc2C1
EC50 (Leishmania mexicana): 15.5 µM

Cc1cccc(CN2CCOc3c(cc(-c4ccc(C)s4)cc3OCC3CCCN(C)C3)C2)n1 (configuration not stated)
EC50 (Leishmania mexicana): 5.3 µM

CN1CCCC(COc2cc(-c3cccc(Cl)c3)cc3c2OCCNC3)C1 (configuration not stated)
EC50 (Leishmania mexicana): 2.2 µM

COc1ccc(C(=O)N2CCOc3c(cc(-c4ccc(C)s4)cc3OCC3CCCN(C)C3)C2)c(OC)c1 (configuration not stated)
EC50 (Leishmania mexicana): 3.9 µM

Cc1noc(C)c1CC(=O)N1CCOc2c(cc(CC3CC3)cc2OCC2CCCN(C)C2)C1 (configuration not stated)
EC50 [1]: > 50 µM

Cc1noc(C)c1CC(=O)N1CCOc2c(cc(Br)cc2OCC2CCCN(C)C2)C1 (configuration not stated)
EC50 [1]: > 50 µM

COc1cccc(C(=O)N2CCOc3c(cc(-c4ccc(C)s4)cc3OCC3CCCN(C)C3)C2)c1 (configuration not stated)
EC50 (Leishmania mexicana): 4.4 µM

CC1=NN(C)CC1c1cc2c(c(OCC3CCCN(C)C3)c1)OCCN(C(=O)Cc1c(C)noc1C)C2 (configuration not stated)
EC50 (Leishmania mexicana): 37.5 µM
EC50 [1]: > 50 µM

CN1CCCC(COc2cc(-c3cccc(Cl)c3)cc3c2OCCN(C(=O)Cc2ccsc2)C3)C1 (configuration not stated)
EC50 (Leishmania mexicana): 11.3 µM

Cc1noc(C)c1CC(=O)N1CCOc2c(cc(-c3ccccc3Cl)cc2OCC2CCCN(C)C2)C1 (configuration not stated)
EC50 (Leishmania mexicana): 2.9 µM
EC50 [1]: 14.7 µM
selectivity ratio [2]: 5.1

COc1ccccc1C(=O)N1CCOc2c(cc(-c3ccc(C)s3)cc2OCC2CCCN(C)C2)C1 (configuration not stated)
EC50 (Leishmania mexicana): 6.1 µM

Cc1ccc(-c2cc3c(c(OCC4CCCN(C)C4)c2)OCCN(C(=O)c2cccc(Cn4cccn4)c2)C3)s1 (configuration not stated)
EC50 (Leishmania mexicana): 4.6 µM

CN1CCCC(COc2cc(-c3cccc(Cl)c3)cc3c2OCCN(C(=O)c2cccs2)C3)C1 (configuration not stated)
EC50 (Leishmania mexicana): 4.6 µM

Cc1ccc(-c2cc3c(c(OCC4CCCN(C)C4)c2)OCCN(Cc2cn(C)nc2C)C3)s1 (configuration not stated)
EC50 (Leishmania mexicana): 5.8 µM

Cc1noc(C)c1CC(=O)N1CCOc2c(cc(-c3ccnn3C)cc2OCC2CCCN(C)C2)C1 (configuration not stated)
EC50 (Leishmania mexicana): 25 µM
EC50 [1]: > 50 µM

CCCCCCCCCCCCCCCCOP(=O)([O-])OCC[N+](C)(C)C [MILTEFOSINE]
EC50 (Leishmania mexicana): 3.2 µM
